Measured values: paper PMC9078534 (RSC Advances, 2018)
Structures can show the parent of a compound that is named as a salt. Where two headings read alike, the source gives them in different places. Values belong to the molecule of their own block, whether it stands above or below them.

Key:
[1] = test system: CBG; set-up: method as in doi:10.1021/symposium; details: other phenolic glycosides; cited from earlier work
[2] = Renal clearance (CLr) of SAL and PAH in hypoxic and normoxic rats; assay type: in vivo; details: rat, plasma and urine, iv
Description: The animal surgery was conducted as described in literature.[23,24] Briefly, the cannulae were inserted into rat right jugular veins, left femoral veins, and bladders after an i.m. injection of 90 mg kg^−1 ketamine and 9 mg kg^−1 xylazine. All surgical procedures were performed under anaesthesia and in a clean surgical room with sterilized instruments. […] Urine from the bladder was collected through the catheter into pre-weighed micro-centrifuge tubes and the volume of urine collected during each 30 min period was calculated by weight. To equilibrate and establish a steady rate of urine excretion, rats were continuously infused with warm saline solution containing mannitol (5%, w/v) for 1 h at a rate of 16 μl min^−1 through the femoral veins (n = 5 each group) using a Sage Instruments Syringe Pump (Cambridge, MA, USA). During the experiment, the rat was placed on a heating pad to maintain body temperature. […] After each blood sampling, an aliquot of 200 μl saline was infused into the jugular to replace the volume of blood taken.

[3] = test system: SULT2A1; assay: Kinetics of p-tyrosol sulfate formation from p-tyrosol in rat liver S9 fraction (RLS), sulfation by SULT2A1; assay type: in vitro ADME
Description: The formation rate of p-tyrosol sulfate could therefore serve as an indicator for the hepatic metabolic rate of SAL. […] The incubation was carried out at 37 °C and terminated by the addition of an equal volume of ice-cold methanol containing 5 μM IS.[18] The content of p-tyrosol sulfate was determined by the UPLC-MS/MS described above. […] All the experiments were carried out in triplicate.
GraphPad Prism® was employed to analyze enzyme kinetic data.

[4] = Transport of SAL across normoxic and hypoxic Caco-2 monolayers (Papp); assay type: in vitro ADME, human; details: human, SAL 10 μM
Description: (§1) The human colorectal adenocarcinoma cell line, Caco-2 cell, was obtained from Cell Resource Center, Institute of Basic Medical Sciences (CAMS). Caco-2 cells, a recognized cell model used for permeability study, were cultured in minimum essential medium (MEM) containing 10% fetal bovine serum, 1% nonessential amino acids, 100 U ml^−1 penicillin, and 100 μg ml^−1 streptomycin, and then were kept in a humidified incubator at 37 °C with 5% CO2. To obtain differentiated monolayers, Caco-2 cells were seeded in Transwell® chambers (12 mm, 0.4 μm pore size; Corning, MA, USA) at a density of 1 × 10^5 cells per wells and cultured for 21 days. TEER (trans-epithelial electrical resistance) was used to monitor the integrity of the monolayer. Monolayer with TEER above 600 Ω cm^2 was employed in the present study. Caco-2 cells grown in Transwell® at passage 32–45 were used for the experiment. After cultivation for 21 days, normoxic incubations were performed in a tissue culture incubator at 37 °C, 5% CO2, while hypoxic incubations were performed in an oxygen-control hypoxic glove box at 37 °C, 1% oxygen content for 24 h.[15] The enzyme activities of LDH, CS and the protein expression of HIF-1α were monitored for hypoxic model validation. The morphological study on hypoxic Caco-2 monolayer was performed with the aid of transmission electron microscopy (TEM) (JEM-2100F, Japan). The expression level of tight junction proteins (ZO-1) in Caco-2 cell under normoxic and hypoxic conditions was measured by western blotting.
(§2) According to the method published in Nature Protocols, the transport test was performed in Hank's balanced salt solution (HBSS) containing 5.56 mM glucose, 10 mM HEPES and 1.26 mM CaCl2.[16] Before experiment, the monolayers were washed twice with HBSS medium and pre-incubated for 30 min. […] Equal volume of the blank HBSS buffer was added back to the chambers after sampling to maintain a constant systemic volume. The collected samples were stored at −20 °C until UPLC-MS/MS analyses.
(§3) The Caco-2 monolayer was pre-incubated with phlorizin (100 μM) for 30 min before the transport experiment.

[5] = test system: Caco-2 monolayers; assay: as above; assay type: in vitro ADME, human
Description: as §1, §2, §3

[6] = Protein binding of SAL in rat plasma by ultrafiltration; assay type: in vitro ADME; details: three spiking concentrations (100, 500, 1000 μg ml^−1), 37 °C, 30 min
Description: After incubation at 37 °C for 30 min, an aliquot of 500 μl plasma was added into the upper part of the centrifugal filter device (Amicon®, cutoff value: 10 kDa). The centrifuge was then conducted in a rate of 11 300g for 30 min at room temperature. SAL in the original sample and ultrafiltrate were determined by UPLC-MS/MS method.

[7] = Stability of SAL in samples during UPLC-MS/MS method validation; assay type: physicochemical
Description: To prepare the samples for calibration curves, 10 μl of IS working solution (containing 100 μg ml^−1 paracetamol) and 10 μl of analyte work solution was added to 100 μl of blank rat plasma. Approximately 300 μl methanol was then added to the above plasma sample for protein precipitation. After centrifuging the mixture at 11 300g for 10 min, the supernatant was collected followed by being evaporated to dryness under nitrogen at room temperature. The residue was reconstituted with 100 μl of methanol. After being centrifuged at 11 300g for 10 min, an aliquot of 5 μl supernatant was injected into the UPLC-MS/MS system for analyses. […] For all QC samples in rat biological matrices, the % RSD of both intra-day and inter-day precision was below 10.4%, and the accuracy was within the range of 85.4 to 100%, which met the criteria from FDA.

[8] = male, SD, rat, in vivo
Description: (§4) Briefly, rats were exposed to hypoxic condition (oxygen content of 9%) for 3 consecutive days to construct the model. Normoxic controls were kept in room air (21% O2) for 3 consecutive days. The concentrations of LDH, CS, and HIF-1α in rat plasma were monitored with the aid of commercial kit listed in ‘Material’ section for model validation.
(§5) Twenty male SD rats were randomly divided into hypoxic group (HYP) and normoxic group (NOR) with ten rats in each group. Following hypoxic and normoxic model construction, rats were prepared for surgery. […] Briefly, rats were anesthetized with an intramuscular dose of ketamine (90 mg kg^−1) and xylazine (9 mg kg^−1) followed by cannulation with a polythene tube (0.5 mm i.d., 1 mm, Portex Ltd., Hythe, Kent, England) in the right jugular vein. The rats were allowed to recover overnight and had free access to water and food. […] The blood samples (200 μl) were taken from the jugular vein catheter and were collected into the heparinized tubes at the following time points: 0, 5, 10, 30, 60, 120, 240, 360, 480, 720 and 1440 min after oral administration and 0, 2, 5, 10, 30, 60, 120, 240, 360, 480 min after intravenous administration, respectively. An aliquot of 200 μl sterile isotonic saline was given immediately to rats after blood sample collection for compensation of body fluid loss. The animals were sacrificed with pentobarbital sodium salt (200 mg kg^−1, i.p.) at the end of the experiment. The obtained blood samples were centrifuged at 11 300g for 5 min at 4 °C and the plasma samples (supernatant) was collected for UPLC-MS/MS analyses. Protein precipitation was adopted for samples preparation.
(§6) Pharmacokinetic parameters including the area under the curve (AUC) and elimination half-life (t1/2) were calculated by non-compartmental model. The peak plasma concentration (Cmax) and the time for reaching Cmax (Tmax) were obtained directly from the experimental data.

[9] = cited from earlier work
[10] = in vivo; details: male, SD, rat
Description: as §4, §5, §6

[11] = substrate: OC[C@H]1O[C@@H](OCCc2ccc(O)cc2)[C@H](O)[C@@H](O)[C@@H]1O; assay: cells, lysate or membranes named; details: pH 7.4, 37.0 °C
[12] = Caco-2, hypoxic Caco-2 monolayer model (1% O2, 24 h)
[13] = Caco-2, normoxic Caco-2 monolayer model
[14] = background statement, no reference given

Molecule: daidzein 4-glycoside
Km [1]: 50 µM

Molecule: quercetin 4-glycoside
Km [1]: 65 µM

CL renal ([2]; 30 mg/kg, hypoxic rats, PAH 30 mg kg^−1 i.v. bolus): 0.818 mL/min/kg | CL renal ([2]; 30 mg/kg, normoxic rats, PAH 30 mg kg^−1 i.v. bolus): 3.28 mL/min/kg
Molecule: Nc1ccc(C(=O)NCC(=O)O)cc1 [PAH, p-aminohippuric acid, reference compound]

Clint of SULT2A1 ([3]; hypoxic RLS): 10.4 ± 2.7 µL/min/mg | Clint of SULT2A1 ([3]; normoxic RLS): 5.8 ± 1.2 µL/min/mg
Molecule: OCCc1ccc(O)cc1 [p-tyrosol]
Vmax of SULT2A1 (p-tyrosol sulfate formation from p-tyrosol) ([3]; hypoxic RLS): 78.3 ± 11.2 nmol/min/mg | Vmax of SULT2A1 (p-tyrosol sulfate formation from p-tyrosol) ([3]; normoxic RLS): 23.3 ± 4.4 nmol/min/mg

Papp A→B at 180 min, 10 μM [4, 12]: 1.77 ± 0.18 ×10⁻⁶ cm/s | Papp B→A at 180 min, 10 μM [4, 12]: 0.7 ± 0.2 ×10⁻⁶ cm/s | Papp A→B at 180 min, 10 μM [4, 13]: 0.88 ± 0.11 ×10⁻⁶ cm/s | Papp B→A at 180 min, 10 μM [4, 13]: 0.088 ± 0.02 ×10⁻⁶ cm/s | ratio between Papp(A→B) and Papp(B→A) ([5]; hypoxic Caco-2 monolayer model): 2.53 | ratio between Papp(A→B) and Papp(B→A) ([5]; normoxic Caco-2 monolayer model): 10.0 | ratio between Papp(A→B) and Papp(B→A) ([5]; normoxic Caco-2 monolayer model, after addition of SGLT1 inhibitor (phlorizin 100 μM)): 2.24 | CL renal ([2]; 444 ug/kg, hypoxic rats, SAL 444 μg kg^−1 i.v. bolus): 0.497 mL/min/kg | CL renal ([2]; 444 ug/kg, normoxic rats, SAL 444 μg kg^−1 i.v. bolus): 1.77 mL/min/kg | plasma binding ratio, hypoxic versus normoxic rats [6]: similar | stability ([7]; auto-sampler (4 °C) for 24 h): stable | stability ([7]; −80 °C for 30 days): stable | MRT(0→t) ([8]; iv, 444 ug/kg): 70.9 ± 7.9 min | t1/2 ([8]; iv, 444 ug/kg): 97.5 ± 12.5 min | Cmax ([8]; po, 4.44 mg/kg): 1835.4 ± 690.5 ng/mL | Tmax ([8]; po, 4.44 mg/kg): 48.0 ± 16.4 min | MRT last ([10]; iv, 444 ug/kg, MRT(0→t)): 48.3 min | half-life ([10]; iv, 444 ug/kg, t1/2): 67.2 ± 11.8 min | Cmax ([10]; po, 4.44 mg/kg, Cmax): 2070 ± 264 ng/mL | Tmax ([10]; po, 4.44 mg/kg, Tmax): 36 min
Molecule: OC[C@H]1O[C@@H](OCCc2ccc(O)cc2)[C@H](O)[C@@H](O)[C@@H]1O [SAL, salidroside]
share of parent compound that undergoes deglycosylation and sulfation ([9]; after oral administration to rats, literature and preliminary studies): more than 50% | share of administered SAL excreted from urine as parent compound [9, 14]: about 20% | share of eliminated SAL accounted for by renal clearance [9, 14]: no more than 20%

Molecule: O=S(=O)(O)Oc1ccc(CCO)cc1 [p-Tyrosol sulfate, p-tyrosol sulfate]
share of total metabolites of SAL ([9]; rats, systemic circulation): over 50%

B1: cytosolic β-glucosidase (CBG) (Rattus norvegicus) (protein)
chain: MAFPVGFGWGAATAAYQVEGGWDADGRGPCVWDTFTHQGGERVFENQTGDVACGSYTLWEEDLKCIKQLGLTHYRFSLSWSRLLPDGTTGFINQKGIDYYNKIIDDLLKNGVTPIVAIYHFDLPQALEDLGGWLSEAIVEAFDKYAQFCFSTFGDRVKQWLTINEPNILALLAYDMGIFAPGVPHIGIGGYQAAHNLIKAHARSWHSYDSLFREEQKGFVSLSLFFCWLEPADPNSEIDQEATKRAINFHLDFFAKPIFIDGDYPDVVKSQVASMSKKQGYPSSRLPEFTEEEKKMIKGTADFFAVQYYTTRLVRHQENKKRELGFLQDVEIEFFPNPFWKNVGWIYVVPWGIRKLLKYIKDTYNNPVIYITENGFPQCDPPSLDDTQRWEYFRQTFQELFKAIHVDDVNLQLYCAWSLLDNFEWNNGYSRRFGLFHVDFEDPARPRTPYRSAKEYAKVIRDNGLAGAM
Km ([11]; other: hypoxic RLS): 19.5 ± 3.1 µM | Km ([11]; other: normoxic RLS): 5.2 ± 0.6 µM
